# Test results from PubChem BioAssay (NCI).
#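 A five-concentration, 48-hour dose response in 96-well plates underlies each endpoint, interpolated linearly between surrounding concentrations. The concentration for 50% growth inhibition is given as GI50. At the TGI there is no net growth.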
# Columns and labels:
# Experiment in all cases: NCI-60 cell line screen, 48 h
# KM12 colon = tested on: KM12 colon
# A549 NSCLC = tested on: A549 NSCLC
# T-47D breast = tested on: T-47D breast
# DU-145 prostate = tested on: DU-145 prostate
# UO-31 renal = tested on: UO-31 renal
# HT29 colon = tested on: HT29 colon
# UACC-62 melanoma = tested on: UACC-62 melanoma
# SF-295 CNS = tested on: SF-295 CNS
# NCI-H522 lung = tested on: NCI-H522 lung
# COLO 205 colon = tested on: COLO 205 colon
# NCI-H460 lung = tested on: NCI-H460 lung
# SW-620 colon = tested on: SW-620 colon
# RPMI-8226 leukemia = tested on: RPMI-8226 leukemia
# HL-60(TB) leukemia = tested on: HL-60(TB) leukemia
# SNB-75 CNS = tested on: SNB-75 CNS
# SK-MEL-5 melanoma = tested on: SK-MEL-5 melanoma
# RXF 393 renal = tested on: RXF 393 renal
# SNB-19 CNS = tested on: SNB-19 CNS
# NCI-H226 lung = tested on: NCI-H226 lung
# SR leukemia = tested on: SR leukemia
# MDA-MB-435 = tested on: MDA-MB-435
# MDA-MB-231 breast = tested on: MDA-MB-231 breast
# HS 578T breast = tested on: HS 578T breast
# SF-268 CNS = tested on: SF-268 CNS
# OVCAR-4 ovarian = tested on: OVCAR-4 ovarian
# MALME-3M melanoma = tested on: MALME-3M melanoma
# SK-MEL-28 melanoma = tested on: SK-MEL-28 melanoma
# HOP-92 NSCLC = tested on: HOP-92 NSCLC
smiles,measurement,setting,value
COc1cccc(/C=C/[N+](=O)[O-])c1,GI50,KM12 colon,2.54 µM
same,TGI,KM12 colon,7.35 µM
same,GI50,A549 NSCLC,5.06 µM
same,TGI,A549 NSCLC,25.4 µM
same,GI50,T-47D breast,2.51 µM
same,TGI,T-47D breast,9.6 µM
same,GI50,DU-145 prostate,2.26 µM
same,TGI,DU-145 prostate,5.64 µM
same,GI50,UO-31 renal,1.68 µM
same,TGI,UO-31 renal,3.4 µM
same,GI50,HT29 colon,1.92 µM
same,TGI,HT29 colon,4.48 µM
same,GI50,UACC-62 melanoma,3.29 µM
same,TGI,UACC-62 melanoma,12.8 µM
same,GI50,SF-295 CNS,3.07 µM
same,TGI,SF-295 CNS,13.4 µM
same,GI50,NCI-H522 lung,11.1 µM
same,TGI,NCI-H522 lung,23.5 µM
same,GI50,COLO 205 colon,1.86 µM
same,TGI,COLO 205 colon,3.54 µM
same,GI50,NCI-H460 lung,15.1 µM
same,TGI,NCI-H460 lung,38.8 µM
same,GI50,SW-620 colon,1.97 µM
same,TGI,SW-620 colon,4.27 µM
same,GI50,RPMI-8226 leukemia,1.78 µM
same,TGI,RPMI-8226 leukemia,4.54 µM
same,GI50,HL-60(TB) leukemia,2.31 µM
same,TGI,HL-60(TB) leukemia,5.77 µM
same,GI50,SNB-75 CNS,12.4 µM
same,TGI,SNB-75 CNS,27.9 µM
same,GI50,SK-MEL-5 melanoma,10.5 µM
same,TGI,SK-MEL-5 melanoma,22.5 µM
same,GI50,RXF 393 renal,1.83 µM
same,TGI,RXF 393 renal,3.39 µM
same,GI50,SNB-19 CNS,16.5 µM
same,TGI,SNB-19 CNS,37 µM
same,GI50,NCI-H226 lung,26.2 µM
same,TGI,NCI-H226 lung,65.3 µM
same,GI50,SR leukemia,1.64 µM
same,TGI,SR leukemia,5.18 µM
same,GI50,MDA-MB-435,2.69 µM
same,TGI,MDA-MB-435,9.28 µM
same,GI50,MDA-MB-231 breast,6.41 µM
same,TGI,MDA-MB-231 breast,20.8 µM
same,GI50,HS 578T breast,15.8 µM
same,TGI,HS 578T breast,55.5 µM
same,GI50,SF-268 CNS,5.64 µM
same,TGI,SF-268 CNS,21.4 µM
same,GI50,OVCAR-4 ovarian,15.5 µM
same,TGI,OVCAR-4 ovarian,36.9 µM
same,GI50,MALME-3M melanoma,12.1 µM
same,TGI,MALME-3M melanoma,27.8 µM
same,GI50,SK-MEL-28 melanoma,2.39 µM
same,TGI,SK-MEL-28 melanoma,6.28 µM
same,GI50,HOP-92 NSCLC,15.9 µM
same,TGI,HOP-92 NSCLC,34.6 µM
